Laboratory results taken from patent US20240024317A1, “CANCER TREATMENT USING BOSENTAN IN COMBINATION WITH A CHECKPOINT INHIBITOR” (Materia Therapeutics Inc., priority 2020, published 2024).

Columns and labels:
Assay type in all cases: in vivo, mice
[1] = test system: orthotopic 4T1 breast tumors; assay: Pimonidazole hypoxia staining (hypoxic area fraction); conditions: 1 mg/kg; 4T1 (FIG. 2B)
Method: Because reducing collagen I levels and tissue stiffness decompresses vessels, it was hypothesized that hypoxia, which is an indicator of decreased blood flow to the tumor, would be reduced with bosentan treatment. […] For the hypoxia studies, Mice bearing orthotopic E0771 or 4T1 breast tumors were injected (intraperitoneal) with 60 mg/kg of pimonidazole HCl at 2 hr prior to tumor removal. Prior to tumors excision, animals were anesthetized via Avertin (200 mg/kg, intraperitoneal). Primary tumors were then excised, fixed in 4% PFA, embedded in OCT and processed accordingly for IHC. Hypoxic regions were detected using the mouse anti-pimonidazole RED 549 conjugate antibody (HP7-100Kit, 1:100). Hypoxic area fraction across different treatment groups was normalized to DAPI staining. For fluorescent immunohistochemistry, tumors were removed, washed twice in 1× PBS for 10 min and incubated with 4% PFA overnight at 4° C. The fixative was aspirated, and samples washed twice in 1× PBS for 10 min. Fixed tissues were embedded in optimal cutting temperature compound in cryomolds (Tissue-Tek) and frozen completely at −20° C. […] CD31 signal was detected with Alexa Fluor-488 anti-rabbit IgG (H+L) and CD3 signal with Alexa Fluor-647 anti-rat IgG (H+L) secondary antibodies. Tumor associated T cell and vessel content was determined by the CD31 and CD3 area fraction normalized to DAPI staining. […]

[2] = test system: 4T1 tumors; assay: CD3/CD31 immunofluorescence: T cell proximity to endothelial cells and area fractions
Method: Because reducing collagen I levels and tissue stiffness decompresses vessels, it was hypothesized that hypoxia, which is an indicator of decreased blood flow to the tumor, would be reduced with bosentan treatment. […] For the hypoxia studies, Mice bearing orthotopic E0771 or 4T1 breast tumors were injected (intraperitoneal) with 60 mg/kg of pimonidazole HCl at 2 hr prior to tumor removal. Prior to tumors excision, animals were anesthetized via Avertin (200 mg/kg, intraperitoneal). Primary tumors were then excised, fixed in 4% PFA, embedded in OCT and processed accordingly for IHC. Hypoxic regions were detected using the mouse anti-pimonidazole RED 549 conjugate antibody (HP7-100Kit, 1:100). Hypoxic area fraction across different treatment groups was normalized to DAPI staining. For fluorescent immunohistochemistry, tumors were removed, washed twice in 1× PBS for 10 min and incubated with 4% PFA overnight at 4° C. The fixative was aspirated, and samples washed twice in 1× PBS for 10 min. Fixed tissues were embedded in optimal cutting temperature compound in cryomolds (Tissue-Tek) and frozen completely at −20° C. Transverse 30 μm thick tumor sections were produced using the Tissue-Tek Cryo3 (SAKURA). Positively charged HistoBond microscope slides (Marienfeld) were used to bond four tissue sections per tumor. Tumor sections were then incubated in blocking solution (10% fetal bovine serum, 3% donkey serum, 1× PBS) for 2h and immunostained with the following primary antibodies; rabbit anti-Collagen I (ab4710, Abcam 1:100), rabbit anti-CD31 (ab28364, Abcam 1:50), rat anti-CD3 (17A2, BioLegend 1:50) and aSMA (ab5694, Abcam 1:50) overnight at 4° C. Secondary antibodies against rabbit, mouse or rat conjugated to Alexa Fluor 488 or 647 (Invitrogen) were used at 1:400 dilution. […] CD31 signal was detected with Alexa Fluor-488 anti-rabbit IgG (H+L) and CD3 signal with Alexa Fluor-647 anti-rat IgG (H+L) secondary antibodies. Tumor associated T cell and vessel content was determined by the CD31 and CD3 area fraction normalized to DAPI staining. […]

[3] = test system: 4T1 or E0771 tumors; assay: Tumor growth under bosentan monotherapy (dose response studies); conditions: bosentan monotherapy at any dose
Method: Mice bearing syngeneic, orthotopic triple negative breast cancer (TNBC) were treated with a range of sub-therapeutic doses of bosentan, from 0.2 mg/kg to 10 mg/kg of body weight. Orthotopic models for murine mammary tumors were generated by implantation of 5×10^4 4T1 or E0771 cancer cells in 40 μl of serum-free medium into the third mammary fat pad of 6-8-week-old BALB/c and C57BL/6 female mice, respectively. 4T1 (ATCC® CRL-2539TH) and E0771 (94A001, CH3 BioSystems) mouse breast adenocarcinoma cell lines were purchased form ATCC and CH3 BioSystems, respectively. The cells were maintained at 37° C./5% CO2 in Roswell Park Memorial Institute medium (RPMI-1640, LM-R1637, Biosera) supplemented with 10% fetal bovine serum (FBS, FB-1001H, biosera) and 1% antibiotics (A5955, Sigma). Bosentan (bosentan Hydrate (S3051, Selleckchem) was dissolved in ddH2O containing 2% DMSO (GK2245, Glentham Life Science), 30% PEG300 (S6704, Selleckchem) and 2% Tween 80 (S6702, Selleckchem)) 1 mg/kg, 5 mg/kg, 10 mg/kg or equal volume of diluent (control group) was administered by intraperitoneal injection (i.p.) once a day for 10 days, starting from once the tumor volumes reached an average size of 100 mm^3. Tumors were excised when they reached an average size of 500 mm^3. Tissue stiffness was then measured non-invasively and longitudinally using ultrasound elastography. […]

COc1ccccc1Oc1c(NS(=O)(=O)c2ccc(C(C)(C)C)cc2)nc(-c2ncccn2)nc1OCCO [bosentan, 4-tert-butyl-N-[6-(2-hydroxy-ethoxy)-5-(2-methoxy-phenoxy)-2-(pyrimidin-2-yl)pyrimidin-4-yl] benzenesulfonamide]
hypoxia (hypoxic area fraction) [1]: reduced hypoxia | T cells colocalizing with endothelial cells (CD3+/CD31+ proximity) [2]: more T cells colocalizing with endothelial cells | area fraction of CD3+ staining [2]: no change | area fraction of CD31+ staining [2]: no change | tumor growth [3]: did not affect
